Assay results reported in patent US11198692B2, “Dihydro-pyrrolo-pyridine derivatives” (Pfizer Inc., priority 2017, dated 2021).

Target: T1, Human M4 receptors (Homo sapiens, UniProt P08173)
T1 construct: expressed in transfected cells
T1 sequence (P08173 1-479): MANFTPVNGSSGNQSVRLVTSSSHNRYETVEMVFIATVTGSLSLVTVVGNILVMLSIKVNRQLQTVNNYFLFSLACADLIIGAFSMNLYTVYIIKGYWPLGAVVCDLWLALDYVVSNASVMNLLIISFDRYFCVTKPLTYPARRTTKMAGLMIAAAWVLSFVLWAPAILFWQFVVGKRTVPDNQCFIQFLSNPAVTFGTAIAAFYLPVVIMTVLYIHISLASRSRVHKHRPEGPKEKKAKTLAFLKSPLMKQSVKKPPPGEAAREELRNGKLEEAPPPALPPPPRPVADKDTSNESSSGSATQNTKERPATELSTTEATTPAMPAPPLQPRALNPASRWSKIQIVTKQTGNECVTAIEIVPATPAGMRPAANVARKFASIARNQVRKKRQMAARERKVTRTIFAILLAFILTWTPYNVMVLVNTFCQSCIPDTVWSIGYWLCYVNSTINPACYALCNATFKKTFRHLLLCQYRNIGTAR
Assay: M4 PAM cAMP assay (GloSensor)
Format: cell-based
Conditions: HEK293 GloSensor cells expressing hM4, with EC20 acetylcholine and isoproterenol, geometric mean of 2-4 determinations unless footnoted (b: >=5, c: single); for Emax / EC50 Mean Asymptote Maximum (%): Emax = maximum asymptote of fitted dose response curve; for Emax: read-out: EC50 Mean Asymptote Maximum (%)
Protocol: The M4 cAMP assay was designed to determine the potency and efficacy of muscarinic positive allosteric modulators (PAMs). Human M4 receptors were stably expressed in Human embryonic kidney (HEK293) cells expressed with the Promega GloSensor™ cAMP technology.
HEK293 GloSensor cells expressing hM4 cells were cultured in growth media containing DMEM with 10% FBS, 1% Penicillin/Streptomycin, 500 μg/mL G418, 200 μg/mL Hygomycin B, and 1% Glutamax. When cells had grown to 80%-90% confluency, cells were harvested and seeded at a density of 25,000 cells/40 μL well, in a 384 white walled plates (Becton Dickinson 356661). Plates were incubated at 37 degrees C. and 5% CO2 for use after 24 hours.
Compound Preparation for Activator Screen:
Test compounds were initially prepared as 100% DMSO stock solutions, then transferred and serially diluted in 384-well compound plates (Matrix #4325). Each compound was tested at 10 concentrations in duplicate per experiment. Compound plates are spotted with 0.2 μL/well activator at 400 times the final assay concentration. Positive and negative controls for the compound alone activator response was 10 μM acetylcholine (Sigma # A2661) and DMSO, respectively. EC20 of acetylcholine was also used to define PAM activities.
Promega GloSensor™reagent (Promega # E1291) had previously been aliquotted. For each experiment, a stock solution of GloSensor™ was thawed out and equilibration medium was prepared with 88% CO2-independent media (Invitrogen #18045088), 10% fetal bovine serum and 2% GloSensor™ cAMP Reagent stock solution. Stock solution was mixed. Culture media in cell plates was discarded, then replaced with 40 μL/well pre-warmed equilibration media, then incubated in the dark at room temperature for 2 hours. During the incubation, stimulation media containing agonist and EC20 acetylcholine was prepared. CO2-independent media containing 50 […] Isoproterenol representing an EC80 of b-adrenergic receptor activity (Sigma #16504, 400 times final concentration) and EC20 acetylcholine in 1.25% DMSO was added to all columns of the compound plate, with the exception of column 12 to allow for EC0 control. […] Compounds are now 5 times the final assay concentration. The plate was mixed using a plate agitator. At the end of the 2 hour GloSensor™ incubation, add 10 μL of the CO2-independent media containing agonist, EC20 acetylcholine and isoproterenol to the cell plate. Cell plate was then incubated for 10 minutes at room temperature, and then read using an EnVision plate reader (Perkin Elmer).
Data was exported from the EnVision plate reader. The percent effect for each well was determined using the mean values for the positive and negative controls on each plate for each read, specifically 100*(compound−negative control)/(positive control−negative control). Dose response curves were fitted to the compound percent effect data using a 4-parameter logistic fit model. Data was reported as EC50 and Emax, with the Emax as the maximum asymptote of the fitted dose response curve.

| Emax | EC50 | EC50 Mean Asymptote Maximum (%) | Structure (SMILES) |
| --- | --- | --- | --- |
| 115% | 2.05 nM | – | CNc1nc(C)c(C)c2c1CN(C(=O)C[C@@H]1C[C@H]1c1ccc(C)nc1)C2 (single isomer, unassigned) [Example 47, 1-[6,7-dimethyl-4-(methylamino)-1,3-dihydro-2H-pyrrolo[3,4-c]pyridin-2-yl]-2-[trans-2-(6-methylpyridin-3-yl)cyclopropyl]ethanone] |
| – | 0.838 nM | 102^b % | CNc1nc(C)c(C)c2c1CN(C(=O)C[C@@H]1C[C@H]1c1ccc(F)nc1)C2 (single isomer, unassigned) [Example 16, 1-[6,7-dimethyl-4-(methylamino)-1,3-dihydro-2H-pyrrolo[3,4-c]pyridin-2-yl]-2-[trans-2-(6-fluoropyridin-3-yl)cyclopropyl]ethanone] |
| 96.8% | 8.46 nM | – | CNc1nc(C)c(C)c2c1CN(C(=O)c1cnn(C)c1)C2 [Example 48, [6,7-dimethyl-4-(methylamino)-1,3-dihydro-2H-pyrrolo[3,4-c]pyridin-2-yl](1-methyl-1H-pyrazol-4-yl)methanone] |
| 106% | 2.91 nM | – | CNc1nc(C)c(C)c2c1CN(C(=O)CC1CN(c3ccnc(OC(F)F)c3)C1)C2 [Example 3, 2-{1-[2-(Difluoromethoxy)pyridin-4-yl]azetidin-3-yl}-1-[6,7-dimethyl-4-(methylamino)-1,3-dihydro-2H-pyrrolo[3,4-c]pyridin-2-yl]ethanone] |
| 84.5% | 36.1 nM | – | Cc1ncc2c(c1C)CN(C(=O)CC1CN(c3cccnc3)C1)C2 [Example 52, 1-(6,7-dimethyl-1,3-dihydro-2H-pyrrolo[3,4-c]pyridin-2-yl)-2-[1-(pyridin-3-yl)azetidin-3-yl]ethanone] |
| 95.8% | 1.76 nM | – | CNc1nc(C)c(C)c2c1CN(C(=O)CC1CN(c3cccnc3)C1)C2 [Example 4, 1-[6,7-Dimethyl-4-(methylamino)-1,3-dihydro-2H-pyrrolo[3,4-c]pyridin-2-yl]-2-[1-(pyridin-3-yl)azetidin-3-yl]ethanone] |
| 96.3% | 690 nM | – | CNc1nc(C)c(C)c2c1CN(C(=O)C[C@@H]1C[C@H]1c1cncnc1)C2 (single isomer, unassigned) [Example 29, 1-[6,7-dimethyl-4-(methylamino)-1,3-dihydro-2H-pyrrolo[3,4-c]pyridin-2-yl]-2-[trans-2-(pyrimidin-5-yl)cyclopropyl]ethanone] |
| – | 1.6 nM | 94.8^b % | CNc1nc(C)c(C)c2c1CN(C(=O)C[C@@H]1C[C@H]1c1cccnc1)C2 (single isomer, unassigned) [Example 11, 1-[6,7-Dimethyl-4-(methylamino)-1,3-dihydro-2H-pyrrolo[3,4-c]pyridin-2-yl]-2-[trans-2-(pyridin-3-yl)cyclopropyl]ethanone] |
| 95.8% | 153 nM | – | COCc1nc(C)c(C)c2c1CN(C(=O)CC1CN(c3cccnc3)C1)C2 [Example 54, 1-[4-(methoxymethyl)-6,7-dimethyl-1,3-dihydro-2H-pyrrolo[3,4-c]pyridin-2-yl]-2-[1-(pyridin-3-yl)azetidin-3-yl]ethanone] |
| 92.3% | 1.23 nM | – | CNc1nc(C)c(C)c2c1CN(C(=O)CC1CN(c3cncnc3)C1)C2 [Example 19, 1-[6,7-dimethyl-4-(methylamino)-1,3-dihydro-2H-pyrrolo[3,4-c]pyridin-2-yl]-2-[1-(pyrimidin-5-yl)azetidin-3-yl]ethanone] |
| 102% | 17.9 nM | – | Cc1nc(N(C)C)c2c(c1C)CN(C(=O)CC1CN(c3cccnc3)C1)C2 [Example 17, 1-[4-(dimethylamino)-6,7-dimethyl-1,3-dihydro-2H-pyrrolo[3,4-c]pyridin-2-yl]-2-[1-(pyridin-3-yl)azetidin-3-yl]ethanone] |
| 95.6% | 5.46 nM | – | CNc1nc(C)c(C)c2c1CN(C(=O)CC1CN(c3ccnc(C#N)c3)C1)C2 [Example 36, 4-(3-{2-[6,7-dimethyl-4-(methylamino)-1,3-dihydro-2H-pyrrolo[3,4-c]pyridin-2-yl]-2-oxoethyl}azetidin-1-yl)pyridine-2-carbonitrile] |
| 92% | 50.6 nM | – | CNc1nc(C)c(C)c2c1CN(C(=O)OC1Cc3cccnc3C1)C2 (centres unmarked) [Example 6, 6,7-Dihydro-5H-cyclopenta[b]pyridin-6-yl 6,7-dimethyl-4-(methylamino)-1,3-dihydro-2H-pyrrolo[3,4-c]pyridine-2-carboxylate] |
| 119% | 24.7 nM | – | CNc1nc(C)c(C)c2c1CN(C(=O)CCc1ccc(OC)cc1)C2 [Example 32, 1-[6,7-dimethyl-4-(methylamino)-1,3-dihydro-2H-pyrrolo[3,4-c]pyridin-2-yl]-3-(4-methoxyphenyl)propan-1-one] |
| 102% | 12.1 nM | – | CNc1nc(C)c(C)c2c1CN(C(=O)CCc1ccc(C#N)cc1)C2 [Example 31, 4-{3-[6,7-dimethyl-4-(methylamino)-1,3-dihydro-2H-pyrrolo[3,4-c]pyridin-2-yl]-3-oxopropyl}benzonitrile] |
| 98.2% | 7.27 nM | – | CNc1nc(C)c(C)c2c1CN(C(=O)CC1Cc3ccccc3C1)C2 [Example 24, 2-(2,3-dihydro-1H-inden-2-yl)-1-[6,7-dimethyl-4-(methylamino)-1,3-dihydro-2H-pyrrolo[3,4-c]pyridin-2-yl]ethanone] |
| 90.9% | 8.62 nM | – | Cc1c2c(c(=O)n(C)c1C)CN(C(=O)CC1CN(c3cccnc3)C1)C2 [Example 1, 5,6,7-Trimethyl-2-{[1-(pyridin-3-yl)azetidin-3-yl]acetyl}-1,2,3,5-tetrahydro-4H-pyrrolo[3,4-c]pyridin-4-one] |
| 96.1% | 78.7 nM | – | COc1nc(C)c(C)c2c1CN(C(=O)CC1CN(c3cncnc3)C1)C2 [Example 55, 1-(4-methoxy-6,7-dimethyl-1,3-dihydro-2H-pyrrolo[3,4-c]pyridin-2-yl)-2-[1-(pyrimidin-5-yl)azetidin-3-yl]ethanone] |
| 98.9% | 8.35 nM | – | Cc1c2c(c(=O)n(C)c1C)CN(C(=O)CC1CN(c3ccnc(C(F)(F)F)c3)C1)C2 [Example 25, 5,6,7-trimethyl-2-({1-[2-(trifluoromethyl)pyridin-4-yl]azetidin-3-yl}acetyl)-1,2,3,5-tetrahydro-4H-pyrrolo[3,4-c]pyridin-4-one] |
